Reference: US20240139125A1 (INDUSTRIAL COOPERATION FOUNDATION JEONBUK NATIONAL …, priority 2020, published 2024)
Structures can show the parent of a compound that is named as a salt.

Assays:
[1] = Cell viability for BIA and analogues, DU145 cell line; assay type: cell-based; conditions: human; for viability at 10 µM: DU145, 10 uM; for viability at 20 µM: DU145, 20 uM; for viability: DU145, 50 rpm
Method: (§1) The compound prepared in Example 15 was treated with HT1080 fibrosarcoma cell line at 5 μM and 10 μM and cell viability was measured. In addition, the compound prepared in Example 15 on the DU145 prostate cancer cell line was treated with 10 μM, 20 μM, and 30 μM and cell viability was measured (see Table 2, Table 3).

[2] = Cell viability for BIA and analogues, HT1080 cell line; assay type: cell-based; conditions: human, HT1080 fibrosarcoma cells; for viability at 5 µM: HT1080, 5 uM; for viability at 10 µM: HT1080, 10 uM
Method: HT1080 MDA-MB-231, SKBR3 and MCF7 cell lines were cultured in a 37° C., 5% CO2 incubator in a medium with 10% Fetal Bovine Serum, 1% penicillin and streptomycin (100 U) added to DMEM.
as §1

SMILES	viability at 10 µM [1] [%]	viability at 20 µM [1] [%]	viability [1] [%]	viability at 5 µM [2] [%]	viability at 10 µM [2] [%]
CCOc1ccc([N+](=O)[O-])cc1C(O)CC(=O)c1ccccc1N (centres unmarked) [GM-90230, 1-(2-aminophenyl)-3-(2-ethoxy-5-nitrophenyl)-3-hydroxypropan-1-one]	66.3	29.1	29.3	108	98.8
COc1cc(N)c(C(=O)/C=C/c2cccc(C(F)(F)F)c2)cc1OC [GM-90320, (E)-1-(2-amino-4,5-dimethoxyphenyl)-3-(3-(trifluoromethyl)phenyl)prop-2-en-1-one]	89.1	89.1	82.4	94.5	62.7
COc1cc(N)c(C(=O)/C=C/c2cccc(Br)c2)cc1OC [GM-90255, (E)-1-(2-amino-4,5-dimethoxyphenyl)-3-(3-bromophenyl)prop-2-en-1-one]	88.7	70.2	66.4	88.1	33.4
Nc1ccccc1C(=O)/C=C/c1ccc(OC(F)(F)F)cc1 [GM-90222, (E)-1-(2-aminophenyl)-3-(4-(trifluoromethoxy)phenyl)prop-2-en-1-one]	40.7	31.3	28.9	109	92
COc1ccccc1C(=O)/C=C/c1cccc([N+](=O)[O-])c1 [GM-90134, (E)-1-(2-methoxyphenyl)-3-(3-nitrophenyl)prop-2-en-1-one]	31.5	25.4	22.8	99.1	96.6
Nc1ccccc1C(=O)/C=C/c1cccc(C(F)(F)F)c1 [GM-90283, (E)-1-(2-aminophenyl)-3-(3-(trifluoromethyl)phenyl)prop-2-en-1-one]	59.9	33.1	22.9	18.1	11.9
O=C(/C=C/c1cccc([N+](=O)[O-])c1)c1ccccc1O [GM-90135, (E)-1-(2-hydroxyphenyl)-3-(3-nitrophenyl)prop-2-en-1-one]	88.5	87.3	64.5	99.9	96.8
Cc1cccc(/C=C/C(=O)c2ccccc2N)c1 [GM-90284, (E)-1-(2-aminophenyl)-3-(m-tolyl)prop-2-en-1-one]	88.4	81	79	86.4	18.8
Nc1ccccc1C(=O)/C=C/c1cccnc1 [GM-90285, (E)-1-(2-aminophenyl)-3-(pyridin-3-yl)prop-2-en-1-one]	83.5	82.8	78.8	71.5	8.35
N#Cc1cccc(/C=C/C(=O)c2ccccc2N)c1 [GM-90282, (E)-3-(3-(2-aminophenyl)-3-oxoprop-1-en-1-yl)benzonitrile]	72.9	53.4	9.57	12.2	7.14
Nc1ccccc1C(=O)/C=C/c1ccccc1 [GM-90130, (E)-1-(2-aminophenyl)-3-phenylprop-2-en-1-one]	78.7	79.4	48.3	99.5	31.7
Nc1ccccc1-c1cc(-c2cccc(C(F)(F)F)c2)ncn1	95.3	87.8	74.8	99.6	97.3
COc1cccc(/C=C/C(=O)c2cc(OC)c(OC)cc2N)c1 [GM-90256, (E)-1-(2-amino-4,5-dimethoxyphenyl)-3-(3-methoxyphenyl)prop-2-en-1-one]	76.3	60.2	54.9	82.4	46.3
Nc1ccccc1C(=O)/C=C/c1cccc(Br)c1 [GM-90132, (E)-1-(2-aminophenyl)-3-(3-bromophenyl)prop-2-en-1-one]	81.5	71.2	19.9	100	30.9
CNC(=O)c1cccc(/C=C/C(=O)c2ccccc2N)c1 [GM-90300, (E)-3-(3-(2-aminophenyl)-3-oxoprop-1-en-1-yl)-N-methyl benzamide]	62.6	58.5	54.5	99.5	23.4
Nc1ccccc1C(=O)/C=C/c1cc(F)c(O)c(F)c1 [GM-90316, (E)-1-(2-aminophenyl)-3-(3,5-difluoro-4-hydroxyphenyl)prop-2-en-1-one]	87.4	60	38.4	101	67.8

SMILES	viability at 10 µM [1] [%]	viability at 20 µM [1] [%]	viability [1] [%]	viability at 5 µM [2] [%]	viability at 10 µM [2] [%]
Nc1ccccc1C(=O)/C=C/c1ccc(F)cc1F [GM-90223, (E)-1-(2-aminophenyl)-3-(2,4-difluorophenyl)prop-2-en-1-one]	26.5	26.3	21.1	93.8	86
Nc1ccccc1C(=O)/C=C/c1ccc([N+](=O)[O-])cc1 [GM-90133, (E)-1-(2-aminophenyl)-3-(4-nitrophenyl)prop-2-en-1-one]	50.5	35.2	26.8	101	54.9
Nc1ccccc1C(=O)/C=C/c1ccc(C(F)(F)F)cc1 [GM-90226, (E)-1-(2-aminophenyl)-3-(4-(trifluoromethyl)phenyl)prop-2-en-1-one]	68.1	46.8	11.8	83.9	15.4
Nc1ccccc1C(=O)/C=C/c1ccc2ccccc2c1 [GM-90225, (E)-1-(2-aminophenyl)-3-(naphthalen-2-yl)prop-2-en-1-one]	87.4	79.4	71.2	70.5	43.5
CCOc1ccc([N+](=O)[O-])cc1/C=C/C(=O)c1ccccc1N [GM-90229, (E)-1-(2-aminophenyl)-3-(2-ethoxy-5-nitrophenyl)prop-2-en-1-one]	53.1	40.5	21.1	64.4	15.7
COc1ccc(C(=O)/C=C/c2cccc([N+](=O)[O-])c2)c(N)c1 [GM-90297, (E)-1-(2-amino-4-methoxyphenyl)-3-(3-nitrophenyl)prop-2-en-1-one]	85.7	87.2	83	93.3	18.2
Nc1ccccc1C(=O)/C=C/c1cccc(Cl)c1 [GM-90317, (E)-1-(2-aminophenyl)-3-(3-chlorophenyl)prop-2-en-1-one]	32.4	28.1	11.9	46.8	14.4
COc1cc(N)c(C(=O)/C=C/c2cccc(C#N)c2)cc1OC [GM-90319, (E)-3-(3-(2-amino-4,5-dimethoxyphenyl)-3-oxoprop-1-en-1-yl)benzonitrile]	110	88.1	85.8	46.6	9.94
Cc1ccc(/C=C/C(=O)c2ccccc2N)cc1 [GM-90227, (E)-1-(2-aminophenyl)-3-(p-tolyl)prop-2-en-1-one]	43.3	36.1	28.2	108	96.3
CCOc1cc(F)ccc1/C=C/C(=O)c1ccccc1N [GM-90224, (E)-1-(2-aminophenyl)-3-(2-ethoxy-4-fluorophenyl)prop-2-en-1-one]	90.5	90	75.8	108	99.7
CC(C)(C)c1ccc(/C=C/C(=O)c2ccccc2N)cc1 [GM-90243, (E)-1-(2-aminophenyl)-3-(4-(tert-butyl)phenyl)prop-2-en-1-one]	31.8	28.2	14.3	66.8	39.2
COc1cc(N)c(C(=O)/C=C/c2cc(O)cc(Br)c2)cc1OC [GM-90321, (E)-1-(2-amino-4,5-dimethoxyphenyl)-3-(3-bromo-5-hydroxyphenyl)prop-2-en-1-one]	83.6	81.8	84.8	61.2	21.2
Nc1cccc(/C=C/C(=O)c2ccccc2N)c1 [GM-90315, (E)-1-(2-aminophenyl)-3-(3-aminophenyl)prop-2-en-1-one Hydrochloride]	98	97.9	88.9	41.1	11.2
Nc1ccccc1-c1cc(-c2cccc(C(F)(F)F)c2)on1 [GM-90340, 2-(5-(3-(trifluoromethyl)phenyl)isoxazol-3-yl)aniline]	92.9	89.3	76.1	88.7	80.2
Nc1ccccc1C(=O)/C=C/c1cc(O)cc(Br)c1 [GM-90281, (E)-1-(2-aminophenyl)-3-(3-bromo-5-hydroxyphenyl)prop-2-en-1-one]	77.4	76.4	67	11.4	11.1
